Measurements: patent US8148391B2 (Cephalon, Inc., priority 2006, dated 2012)
Where a name gives a salt, the structure may show the parent alone. Read-outs that look alike come from different tables or passages of the source. Each block holds one compound with its values, some of them ahead of it.

What was measured:
[1] = molecular target: T1, baculovirus-expressed ALK (Homo sapiens, UniProt Q9UM73); experiment: ALK Kinase Assay (ELISA-type, time-resolved fluorescence); format: biochemical
T1 construct: host or cells: baculovirus expression system
Procedure, shortened: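 Wells were coated with phospholipase C-γ at 10 μg/mL in Tris-buffered saline. Adding 30 ng/ml enzyme started the reaction, which ran at 37° C for 15 minutes before Eu-N1 PT66 antibody detection. Percent inhibition versus log10 concentration gave IC50 by variable-slope fit.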

[2] = molecular target: T2, c-Met (cytoplasmic domain) (Homo sapiens, UniProt P08581); experiment: c-Met Kinase Assay (same methods as for ALK, with modifications); format: biochemical
T2 construct: 10 ng/mL c-Met (cytoplasmic domain, Invitrogen Corporation #PV3143); purchased Invitrogen Corporation PV3143
Procedure, shortened: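 IC50 values were fitted by variable-slope sigmoidal regression of percent inhibition against log compound concentration. Phosphorylation was read with Eu-N1 PT66 antibody after a 15 min, 37 °C reaction. The reaction was initiated with 10 ng/mL c-Met cytoplasmic domain on wells coated with 10 μg/mL PLC-γ in TBS.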

[3] = 1 μM ATP (Km level), 30 ng/ml ALK, 37° C., 15 minutes, read-out: ALK Activity (ALK kinase inhibition, IC50 class)
[4] = 1 μM ATP (Km level), 10 ng/mL c-Met, read-out: cMet Activity (c-Met kinase inhibition, IC50 class)
[5] = ALK kinase inhibition, 1 μM ATP, read-out: ALK Activity
[6] = c-Met kinase inhibition, 1 μM ATP, read-out: cMet Activity
[7] = 1 μM ATP (Km level), read-out: ALK Activity (ALK Kinase Inhibition, IC50)
[8] = 1 μM ATP (Km level), read-out: cMet Activity (c-Met Kinase Inhibition, IC50)
[9] = ALK kinase inhibition, 1 μM ATP (Km level), read-out: ALK Activity
[10] = c-Met kinase inhibition, 1 μM ATP (Km level), read-out: cMet Activity

T2 sequence (P08581 956-1390 limits assumed): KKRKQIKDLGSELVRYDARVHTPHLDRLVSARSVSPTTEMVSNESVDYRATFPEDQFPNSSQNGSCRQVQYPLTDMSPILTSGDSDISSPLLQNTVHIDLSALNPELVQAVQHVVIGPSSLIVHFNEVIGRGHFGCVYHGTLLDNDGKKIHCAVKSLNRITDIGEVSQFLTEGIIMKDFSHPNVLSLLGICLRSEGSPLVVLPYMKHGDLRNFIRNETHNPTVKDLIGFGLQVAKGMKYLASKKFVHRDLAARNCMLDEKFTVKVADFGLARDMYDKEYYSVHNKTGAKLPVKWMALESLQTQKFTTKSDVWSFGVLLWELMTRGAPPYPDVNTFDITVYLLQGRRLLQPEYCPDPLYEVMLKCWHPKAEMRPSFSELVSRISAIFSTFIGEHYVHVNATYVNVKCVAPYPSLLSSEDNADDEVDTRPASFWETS
T1 sequence (Q9UM73 19-1620): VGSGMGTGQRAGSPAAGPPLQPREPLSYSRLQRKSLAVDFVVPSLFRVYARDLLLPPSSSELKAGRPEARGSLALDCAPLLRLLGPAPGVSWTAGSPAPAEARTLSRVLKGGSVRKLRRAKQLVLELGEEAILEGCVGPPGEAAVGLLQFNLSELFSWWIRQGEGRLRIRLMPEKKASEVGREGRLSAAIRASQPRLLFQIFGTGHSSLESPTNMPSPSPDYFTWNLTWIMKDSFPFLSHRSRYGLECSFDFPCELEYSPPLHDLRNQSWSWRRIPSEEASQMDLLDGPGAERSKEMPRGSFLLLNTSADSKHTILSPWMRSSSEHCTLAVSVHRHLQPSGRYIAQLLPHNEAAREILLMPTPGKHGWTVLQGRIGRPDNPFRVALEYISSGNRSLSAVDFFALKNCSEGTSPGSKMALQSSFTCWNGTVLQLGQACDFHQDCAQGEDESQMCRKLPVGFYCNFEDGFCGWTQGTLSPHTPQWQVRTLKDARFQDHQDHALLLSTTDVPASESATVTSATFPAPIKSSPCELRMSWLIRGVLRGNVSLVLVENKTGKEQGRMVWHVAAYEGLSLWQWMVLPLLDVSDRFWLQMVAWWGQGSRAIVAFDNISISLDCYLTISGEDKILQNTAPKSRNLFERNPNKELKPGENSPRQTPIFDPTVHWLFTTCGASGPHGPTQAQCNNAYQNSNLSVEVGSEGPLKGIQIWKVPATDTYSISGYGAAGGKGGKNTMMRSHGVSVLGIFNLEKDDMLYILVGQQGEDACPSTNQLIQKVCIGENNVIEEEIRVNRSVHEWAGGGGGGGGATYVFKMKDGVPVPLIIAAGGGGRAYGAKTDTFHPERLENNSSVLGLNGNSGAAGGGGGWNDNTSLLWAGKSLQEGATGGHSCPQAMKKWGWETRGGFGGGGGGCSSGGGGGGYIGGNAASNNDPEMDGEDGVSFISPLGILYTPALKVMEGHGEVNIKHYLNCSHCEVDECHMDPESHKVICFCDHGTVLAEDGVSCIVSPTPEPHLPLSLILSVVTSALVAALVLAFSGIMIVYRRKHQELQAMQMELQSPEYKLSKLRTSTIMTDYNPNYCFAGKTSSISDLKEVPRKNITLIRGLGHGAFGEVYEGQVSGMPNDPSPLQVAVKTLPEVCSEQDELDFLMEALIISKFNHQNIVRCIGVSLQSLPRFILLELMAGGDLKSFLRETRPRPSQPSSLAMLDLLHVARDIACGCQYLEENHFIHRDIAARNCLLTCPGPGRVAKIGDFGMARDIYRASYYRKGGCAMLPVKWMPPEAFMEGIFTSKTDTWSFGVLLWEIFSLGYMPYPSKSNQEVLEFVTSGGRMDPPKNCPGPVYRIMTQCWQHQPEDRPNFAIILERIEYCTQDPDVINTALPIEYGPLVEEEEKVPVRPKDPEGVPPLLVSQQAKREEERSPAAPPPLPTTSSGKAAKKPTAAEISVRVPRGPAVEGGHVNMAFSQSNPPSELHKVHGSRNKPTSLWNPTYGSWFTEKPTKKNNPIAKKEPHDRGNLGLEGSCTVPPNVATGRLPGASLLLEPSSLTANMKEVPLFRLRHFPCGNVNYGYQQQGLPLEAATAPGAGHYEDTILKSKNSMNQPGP

- IC50 [1, 3]: < 100 nM
- IC50 [2, 4]: > 10000 nM
Compound: CCN1C(=O)C(N)CCc2c1ccc(Nc1ncc(Cl)c(Nc3ccc(N(C)C)cc3OC)n1)c2OC (stereo not shown) [Example 1343, 3-Amino-7-[5-chloro-4-(4-dimethylamino-2-methoxy-phenylamino)-pyrimidin-2-ylamino]-1-ethyl-6-methoxy-1,3,4,5-tetrahydro-benzo[b]azepin-2-one]

- IC50 [1, 3]: 100 to 1000 nM
- IC50 [2, 4]: 100 to 1000 nM
Compound: COCCN1CCc2ccc(Nc3ncc(Cl)c(Nc4ccccc4OCC(N)=O)n3)cc2CC1 [Example 1241, 2-(2-{5-Chloro-2-[3-(2-methoxy-ethyl)-2,3,4,5-tetrahydro-1H-3-benzazepin-7-ylamino]-pyrimidin-4-ylamino}-phenoxy)-acetamide]

- IC50 [1, 5]: < 100 nM
- IC50 [2, 6]: 100 to 1000 nM
Compound: C#CCNC(=O)c1cccc(F)c1Nc1nc(Nc2ccc3c(c2)N(CCN2CCCC2)CCCC3(C)C)ncc1Cl [Example 1609, 2-{5-Chloro-2-[5,5-dimethyl-1-(2-pyrrolidin-1-yl-ethyl)-2,3,4,5-tetrahydro-1H-benzo[b]azepin-8-ylamino]-pyrimidin-4-ylamino}-3-fluoro-N-prop-2-ynyl-benzamide]

- IC50 [1, 5]: < 100 nM
- IC50 [2, 6]: 1000 to 10000 nM
Compound: CCN1C(=O)CCCc2cc(Nc3ncc(Cl)c(N[C@@H]4CCCC[C@H]4N(C)S(C)(=O)=O)n3)c(OC)cc21 [Example 1678, N-{(1R,2R)-2-[5-Chloro-2-(1-ethyl-8-methoxy-2-oxo-2,3,4,5-tetrahydro-1H-benzo[b]azepin-7-ylamino)-pyrimidin-4-ylamino]-cyclohexyl}-N-methyl-methanesulfonamide]

- IC50 [1, 5]: < 100 nM
- IC50 [2, 6]: 1000 to 10000 nM
Compound: COc1cc2c(cc1Nc1ncc(Cl)c(Nc3ccccc3OCC#N)n1)CCOC(=O)N2C [Example 1516, {2-[5-Chloro-2-(3-methoxy-5-methyl-6-oxo-5,6,8,9-tetrahydro-7-oxa-5-aza-benzocyclohepten-2-ylamino)-pyrimidin-4-ylamino]-phenoxy}-acetonitrile]

- IC50 [1, 5]: < 100 nM
- IC50 [2, 6]: < 100 nM
Compound: CC(=O)NC1CC(C)(C)c2ccc(Nc3ncc(Cl)c(Nc4c(F)cccc4C(=O)NCC#N)n3)cc2NC1=O (stereo not shown) [Example 1636, 2-[2-(3-Acetylamino-5,5-dimethyl-2-oxo-2,3,4,5-tetrahydro-1H-benzo[b]azepin-8-ylamino)-5-chloro-pyrimidin-4-ylamino]-N-cyanomethyl-3-fluoro-Benzamide]

- IC50 [1, 3]: < 100 nM
- IC50 [2, 4]: 1000 to 10000 nM
Compound: COc1cc2c(cc1Nc1ncc(Cl)c(Nc3ccccc3S(=O)(=O)N(C)C)n1)CCN(CCN1CCOCC1)C(=O)C2 [Example 1195, 2-{5-Chloro-2-[8-methoxy-3-(2-morpholin-4-yl-ethyl)-2-oxo-2,3,4,5-tetrahydro-1H-benzo[d]azepin-7-ylamino]-pyrimidin-4-ylamino}-N,N-dimethyl-benzenesulfonamide]

- IC50 [1, 5]: < 100 nM
- IC50 [2, 6]: 100 to 1000 nM
Compound: CNC(=O)c1cccc(F)c1Nc1nc(Nc2ccc3c(c2)N(CCN2CCCC2)CCCC3(C)C)ncc1Cl [Example 1605, 2-{5-Chloro-2-[5,5-dimethyl-1-(2-pyrrolidin-1-yl-ethyl)-2,3,4,5-tetrahydro-1H-benzo[b]azepin-8-ylamino]-pyrimidin-4-ylamino}-3-fluoro-N-methyl-benzamide]

The next lines start with the compound.

Compound: COc1cc2c(cc1Nc1ncc(Cl)c(N[C@H]3[C@@H](C(N)=O)[C@@H]4C=C[C@H]3C4)n1)CCN(CC(=O)N(C)C)CC2 [Example 1123, (1S,2S,3R,4R)-3-[5-Chloro-2-(3-dimethylcarbamoylmethyl-8-methoxy-2,3,4,5-tetrahydro-1H-benzo[d]azepin-7-ylamino)-pyrimidin-4-ylamino]-bicyclo[2.2.1]hept-5-ene-2-carboxylic acid amide]
- IC50 [1, 3]: < 100 nM
- IC50 [2, 4]: > 10000 nM

Compound: CN1C(=O)CCCc2cc(Nc3ncc(Cl)c(Nc4c(F)cccc4C(=O)NCCC#N)n3)ccc21 [Example 1042, 2-[5-Chloro-2-(1-methyl-2-oxo-2,3,4,5-tetrahydro-1H-benzo[b]azepin-7-ylamino)-pyrimidin-4-ylamino]-N-(2-cyano-ethyl)-3-fluoro-benzamide]
- IC50 [1, 3]: 100 to 1000 nM
- IC50 [2, 4]: < 100 nM

Compound: CCNC(=O)c1ccccc1Nc1nc(Nc2cc3c(cc2OC)CCN(CC(C)(F)F)CC3)ncc1Cl [Example 788, 2-{5-Chloro-2-[3-(2,2-difluoro-propyl)-8-methoxy-2,3,4,5-tetrahydro-1H-benzo[d]azepin-7-ylamino]-pyrimidin-4-ylamino}-N-ethyl-benzamide]
- IC50 [1, 7]: < 100 nM
- IC50 [2, 8]: > 10000 nM

Compound: CNC(=O)c1cccc(Nc2nc(Nc3ccc4c(c3)CCN(CCOC)CC4)ncc2Cl)c1 [Example 673, 3-{5-Chloro-2-[3-(2-methoxy-ethyl)-2,3,4,5-tetrahydro-1H-benzo[d]azepin-7-ylamino]-pyrimidin-4-ylamino}-N-methyl-benzamide]
- IC50 [1, 7]: 100 to 1000 nM
- IC50 [2, 8]: 1000 to 10000 nM

Compound: COCCN1CCc2cc(Nc3ncc(Cl)c(Nc4ccccc4S(=O)(=O)N(C)C)n3)c(OC)cc2CC1 [Example 1165, 2-{5-Chloro-2-[8-methoxy-3-(2-methoxy-ethyl)-2,3,4,5-tetrahydro-1H-benzo[d]azepin-7-ylamino]-pyrimidin-4-ylamino}-N,N-dimethyl-benzenesulfonamide]
- IC50 [1, 3]: < 100 nM
- IC50 [2, 4]: 1000 to 10000 nM

Compound: COCC(COC)N1CCc2cc(Nc3ncc(Cl)c(Nc4ccc(C(N)=O)cc4OC)n3)c(OC)cc2CC1 [Example 1153, 4-{5-Chloro-2-[8-methoxy-3-(2-methoxy-1-methoxymethyl-ethyl)-2,3,4,5-tetrahydro-1H-benzo[d]azepin-7-ylamino]-pyrimidin-4-ylamino}-3-methoxy-benzamide]
- IC50 [1, 3]: < 100 nM
- IC50 [2, 4]: > 10000 nM

Compound: 2-{5-Chloro-2-[1-methoxy-7-(4-methyl-piperazin-1-yl)-6,7,8,9-tetrahydro-5H-benzocyclohepten-2-ylamino]-pyrimidin-4-ylamino}-N,N-dimethyl-benzenesulfonamide [Example 912]
- IC50 [1, 7]: < 100 nM
- IC50 [2, 8]: > 10000 nM

Compound: CC(=O)N[C@@H]1CCCC[C@H]1Nc1nc(Nc2ccc3c(c2)C(C)(C)CCC(=O)N3)ncc1Cl [Example 395, N-{(1R,2R)-2-[5-Chloro-2-(5,5-dimethyl-2-oxo-2,3,4,5-tetrahydro-1H-benzo[b]azepin-7-ylamino)-pyrimidin-4-ylamino]-cyclohexyl}-acetamide]
- IC50 [1, 9]: < 100 nM
- IC50 [2, 10]: 100 to 1000 nM

Compound: (1S,2S,4R)-3-{5-Chloro-2-[3-(2-dimethylamino-acetylamino)-1-ethyl-6-methoxy-2-oxo-2,3,4,5-tetrahydro-1H-benzo[b]azepin-7-ylamino]-pyrimidin-4-ylamino}-bicyclo[2.2.1]hept-5-ene-2-carboxylic acid amide [Example 1353]
- IC50 [1, 3]: < 100 nM
- IC50 [2, 4]: > 10000 nM

Compound: COc1cc(N2CCOCC2)ccc1Nc1nc(Nc2ccc3c(c2)CCCC(=O)N3C(C)C)ncc1Cl [Example 666, 7-[5-Chloro-4-(2-methoxy-4-morpholin-4-yl-phenylamino)-pyrimidin-2-ylamino]-1-isopropyl-1,3,4,5-tetrahydro-benzo[b]azepin-2-one]
- IC50 [1, 7]: 100 to 1000 nM
- IC50 [2, 8]: 1000 to 10000 nM

Compound: CN1CCNCc2cc(Nc3ncc(Cl)c(Nc4ccccc4NS(C)(=O)=O)n3)ccc21 [Example 421, N-{2-[5-Chloro-2-(1-methyl-2,3,4,5-tetrahydro-1H-benzo[e][1,4]diazepin-7-ylamino)-pyrimidin-4-ylamino]-phenyl}-methanesulfonamide]
- IC50 [1, 9]: < 100 nM
- IC50 [2, 10]: 100 to 1000 nM

Compound: CNC(=O)c1ccccc1Nc1nc(Nc2ccc3c(c2)CCC(N2CCOCC2)CC3)ncc1Cl (stereo not shown) [Example 178, 2-[5-Chloro-2-(7-morpholin-4-yl-6,7,8,9-tetrahydro-5H-benzocyclohepten-2-ylamino)-pyrimidin-4-ylamino]-N-methyl-benzamide]
- IC50 [1, 9]: < 100 nM
- IC50 [2, 10]: < 100 nM

Compound: CCN1CCc2ccc(OC)c(Nc3ncc(Cl)c(Nc4ccccc4S(=O)(=O)NC)n3)c2CC1 [Example 49, 2-[5-Chloro-2-(3-ethyl-7-methoxy-2,3,4,5-tetrahydro-1H-benzo[d]azepin-6-ylamino)-pyrimidin-4-ylamino]-N-methyl-benzenesulfonamide]
- IC50 [1, 9]: < 100 nM
- IC50 [2, 10]: > 10000 nM

Compound: NC(=O)[C@@H]1[C@H](Nc2nc(Nc3ccc4c(c3)CCC(=O)CC4)ncc2Cl)[C@H]2C=C[C@@H]1C2 (relative stereo) [Example 173, (2-exo,3-exo)-3-[5-Chloro-2-(7-oxo-6,7,8,9-tetrahydro-5H-benzocyclo-hepten-2-ylamino)-pyrimidin-4-ylamino]-bicyclo[2.2.1]hept-5-ene-2-carboxylic acid amide; hydrochloride]
- IC50 [1, 9]: < 100 nM
- IC50 [2, 10]: 100 to 1000 nM

Compound: COCCN1CCN(C)c2cc(Nc3ncc(Cl)c(Nc4ccc(N5CCOCC5)cc4OC)n3)c(OC)cc2C1 [Example 495, 5-Chloro-N*2*-[7-methoxy-4-(2-methoxy-ethyl)-1-methyl-2,3,4,5-tetrahydro-1H-benzo[e][1,4]diazepin-8-yl]-N*4*-(2-methoxy-4-morpholin-4-yl-phenyl)-pyrimidine-2,4-diamine]
- IC50 [1, 9]: < 100 nM
- IC50 [2, 10]: > 10000 nM
